Experimental data: ChEMBL document CHEMBL1154024, “Synthesis of radiolabeled cytarabine conjugates” (2009)
Active and inactive are the calls of the source. No cut-off for these calls is given here.

Assays:
NCI-H441 [1] = assay: Cytotoxicity against human H441 cells after 72 hrs by trypan blue cell exclusion assay; format: functional, cell-based
[2] = Cytotoxicity in human H441 cells at 2 uM after 72 hrs by trypan blue cell exclusion assay; format: functional, NCI-H441
NCI-H441 [3] = assay: Cytotoxicity against human H441 cells by serum lactate dehydrogenase assay; format: functional, cell-based
NCI-H441 [4] = assay: Cytotoxicity against human H441 cells by glucosaminidase assay; format: functional, cell-based

SMILES: NNc1ccc(C(=O)Nc2ccn([C@@H]3O[C@H](CO)[C@@H](O)[C@@H]3O)c(=O)n2)cn1
- Activity (NCI-H441 [1]): Dose-dependent effect
- Activity [2]: 55%
- Activity (NCI-H441 [3]): Active
- Activity (NCI-H441 [4]): Active

SMILES: Nc1ccn([C@@H]2O[C@H](CO)[C@@H](O)[C@@H]2O)c(=O)n1 [CYTARABINE]
- Activity (NCI-H441 [1]): Dose-dependent effect
- Activity [2]: 55%
- Activity (NCI-H441 [3]): Active
- Activity (NCI-H441 [4]): Active
